The values that follow come from US10155749B2, “Substituted benzimidazolium compounds useful in the treatment of respiratory diseases” (Boehringer Ingelheim International GmbH, priority 2015, dated 2018).

The target in the experiment is T1, ENaC (Epithelial Sodium Channel) (Mus musculus, UniProt Q61180+Q9WU38+Q9WU39).
T1 construct: Mouse kidney M-1 cells were cultivated in DMEM containing 5% FCS and 5 μM dexamethasone; endogenous in cells; host or cells: Mouse kidney M-1 cells
T1 sequence (Q61180 1-699): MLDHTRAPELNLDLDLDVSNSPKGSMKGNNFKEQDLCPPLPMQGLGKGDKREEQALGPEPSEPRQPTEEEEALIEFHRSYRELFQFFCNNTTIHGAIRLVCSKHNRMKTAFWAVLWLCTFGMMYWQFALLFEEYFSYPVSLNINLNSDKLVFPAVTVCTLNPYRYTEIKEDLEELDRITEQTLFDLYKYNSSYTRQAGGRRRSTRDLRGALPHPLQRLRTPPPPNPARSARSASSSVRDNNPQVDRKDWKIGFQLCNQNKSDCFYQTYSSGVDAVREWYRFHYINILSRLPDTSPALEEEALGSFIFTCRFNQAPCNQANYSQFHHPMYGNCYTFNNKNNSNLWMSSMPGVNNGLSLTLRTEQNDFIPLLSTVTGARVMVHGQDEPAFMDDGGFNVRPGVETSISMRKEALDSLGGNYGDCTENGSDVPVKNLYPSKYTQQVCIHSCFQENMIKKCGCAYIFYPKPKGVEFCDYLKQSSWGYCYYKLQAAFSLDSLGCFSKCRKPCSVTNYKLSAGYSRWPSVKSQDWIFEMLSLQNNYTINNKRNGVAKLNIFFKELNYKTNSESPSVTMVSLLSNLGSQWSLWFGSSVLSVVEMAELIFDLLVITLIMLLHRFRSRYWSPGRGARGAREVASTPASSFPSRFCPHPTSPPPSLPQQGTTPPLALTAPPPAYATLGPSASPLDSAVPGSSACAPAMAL
T1 sequence (Q9WU38 1-638): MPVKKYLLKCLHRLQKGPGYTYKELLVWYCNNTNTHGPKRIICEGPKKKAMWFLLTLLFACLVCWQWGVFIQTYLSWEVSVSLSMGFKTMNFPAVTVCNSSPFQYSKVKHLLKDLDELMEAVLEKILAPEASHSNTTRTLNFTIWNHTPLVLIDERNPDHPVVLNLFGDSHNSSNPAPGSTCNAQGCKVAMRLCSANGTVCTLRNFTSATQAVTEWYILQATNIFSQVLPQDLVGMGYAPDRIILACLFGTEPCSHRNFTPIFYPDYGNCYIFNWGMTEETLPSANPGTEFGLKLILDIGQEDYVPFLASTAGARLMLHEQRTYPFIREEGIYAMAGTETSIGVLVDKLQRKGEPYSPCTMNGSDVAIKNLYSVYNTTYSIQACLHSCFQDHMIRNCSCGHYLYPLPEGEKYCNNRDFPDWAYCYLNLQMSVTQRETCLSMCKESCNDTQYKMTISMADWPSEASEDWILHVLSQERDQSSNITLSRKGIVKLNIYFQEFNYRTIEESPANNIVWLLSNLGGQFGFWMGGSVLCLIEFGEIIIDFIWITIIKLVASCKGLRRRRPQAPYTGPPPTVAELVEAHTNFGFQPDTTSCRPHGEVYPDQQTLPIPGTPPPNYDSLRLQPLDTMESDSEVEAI
T1 sequence (Q9WU39 1-655): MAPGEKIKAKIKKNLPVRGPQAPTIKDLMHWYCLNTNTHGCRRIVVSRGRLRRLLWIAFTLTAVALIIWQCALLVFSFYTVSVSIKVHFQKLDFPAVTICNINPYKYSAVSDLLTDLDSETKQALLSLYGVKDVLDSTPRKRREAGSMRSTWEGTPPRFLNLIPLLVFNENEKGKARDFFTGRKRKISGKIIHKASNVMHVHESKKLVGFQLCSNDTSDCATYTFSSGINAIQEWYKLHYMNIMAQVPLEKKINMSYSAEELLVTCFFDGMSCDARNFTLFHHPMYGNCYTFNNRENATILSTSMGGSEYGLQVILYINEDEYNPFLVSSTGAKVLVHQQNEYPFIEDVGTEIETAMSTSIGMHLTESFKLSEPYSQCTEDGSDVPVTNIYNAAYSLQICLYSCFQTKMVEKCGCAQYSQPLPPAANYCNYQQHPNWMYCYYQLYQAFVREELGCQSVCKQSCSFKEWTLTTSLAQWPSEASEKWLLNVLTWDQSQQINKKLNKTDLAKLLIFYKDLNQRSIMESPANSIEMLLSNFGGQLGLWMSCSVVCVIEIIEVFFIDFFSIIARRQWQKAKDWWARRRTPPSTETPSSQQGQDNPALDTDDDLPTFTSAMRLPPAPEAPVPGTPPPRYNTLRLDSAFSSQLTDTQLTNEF
Nature of the experiment: Ussing Chamber assay (short circuit current, amiloride sensitive I_SC) in M-1 cells. Format: cell-based. As to conditions: Mouse kidney M-1 cells, apical application, 37° C. The procedure:
The IC50 values of the example compounds given above were determined in the Ussing Chamber assay.
Ussing Chamber: Mouse kidney M-1 cells were cultivated in DMEM containing 5% FCS and 5 μM dexamethasone for 10 to 12 days on polyester transwell filters. Filters were inserted into a teflon-coated well-plate which fit into the ussing chamber system. Prior to measurement the medium of M-1 cells was replaced with Caco-2 transport buffer (Invitrogen, Germany). During measurements, the Ussing chamber temperature was kept at 37° C. Short circuit currents (I_sc) were measured in the voltage-clamp mode with the software package Lab View for data acquisition and analysis. The transepithelial electrical resistance (TEER) was determined by the application of voltage steps of ±5 mV every 5 sec. Compounds were administered at a final concentration of 3 μM or at increasing concentrations (1-3-10 μM) to the apical solution. At the end of each experiment the amiloride sensitive I_SC was measured by adding 3 μM amiloride to the apical compartment. Results are expressed as inhibition in percent of the amiloride effect or as IC50.
Turning to `CCn1c(CNC(=O)c2nc(Cl)c(N)nc2N)[n+](CC)c2cc(F)c(C(=O)NCCCN(C)C)cc21` [Example 3.07], the IC50 (usually the concentration at which inhibition is half-maximal) amounted to 1 nM. On to `CCOc1cc2c(cc1C(=O)N1CCN(C(=O)Cc3ccccn3)CC1)[n+](CC)c(CNC(=O)c1nc(Cl)c(N)nc1N)n2CC` [Example 4.12], for which the IC50 came to 2 nM. For `CCCCCCN1CCC(NC(=O)COc2ccc3c(c2)n(CC)c(CNC(=O)c2nc(Cl)c(N)nc2N)[n+]3CC)CC1` [Example 3.04], half-maximal inhibition (IC50) required 0.6 nM. Molecule `CCn1c(CNC(=O)c2nc(Cl)c(N)nc2N)[n+](CC)c2ccc(OCCNC(=O)CN3CCOCC3)cc21` [Example 4.02] gave an IC50 of 2 nM. The molecule `CCn1c(CNC(=O)c2nc(Cl)c(N)nc2N)[n+](CC)c2ccc(OCCNC(=O)CN3CCN(C)CC3)cc21` [Example 4.05] showed a concentration for half-maximal inhibition (IC50) of 0.4 nM. In turn, `CCn1c(CNC(=O)c2nc(Cl)c(N)nc2N)[n+](CC)c2ccc(OCC(=O)N(C)Cc3nc(C)ccc3[O-])cc21` [Example 3.02] gave an IC50 of 0.4 nM. Molecule `CCNC(=O)COc1cc2c(cc1C(=O)NC1CCN(C(C)=O)CC1)[n+](CC)c(CNC(=O)c1nc(Cl)c(N)nc1N)n2CC` [Example 4.13] yielded an IC50 of 4 nM. `CCn1c(CNC(=O)c2nc(Cl)c(N)nc2N)[n+](CC)c2cc(C(=O)NC3CCNCC3)c(F)cc21` [Example 6.06] returned a 50% inhibitory concentration (IC50) of 0.4 nM. Consider `CCOc1cc2c(cc1C(=O)N1CCN(C(=O)c3cncc(O)c3)CC1)[n+](CC)c(CNC(=O)c1nc(Cl)c(N)nc1N)n2CC` [Example 4.16], for which the 50% inhibitory concentration (IC50) came to 2 nM. On to `CCn1c(CNC(=O)c2nc(Cl)c(N)nc2N)[n+](CC)c2cc(C(=O)N3CCN(C(=O)N4CCOCC4)CC3)c(F)cc21` [Example 3.15], for which half-maximal inhibition (IC50) was put at 1 nM. Compared with the last molecule, the IC50 is about 2-fold lower. In the case of `CCOc1cc2c(cc1C(=O)N1CCNCC1)[n+](CC)c(CNC(=O)c1nc(Cl)c(N)nc1N)n2CC` [Example 8.02], it took 1 nM to reach half-maximal inhibition (IC50). Turning to `CCCCCCN1CCC(NC(=O)COc2cc3c(cc2C(=O)NCC)[n+](CC)c(CNC(=O)c2nc(Cl)c(N)nc2N)n3CC)CC1` [Example 3.20], the IC50 came to 15 nM. Against the preceding molecule, the IC50 is about 15-fold higher. In turn, `CC[n+]1c(CNC(=O)c2nc(Cl)c(N)nc2N)n(C[C@H](C)O)c2cc(N(C)C)c(C(=O)N3CCNCC3)cc21` [Example 8.01] yielded a half-inhibitory concentration (IC50) of 6 nM.

`CCCCCOc1cc2c(cc1C(=O)N1CCN(C(=O)c3cncc(O)c3)CC1)[n+](CC)c(CNC(=O)c1nc(Cl)c(N)nc1N)n2C[C@H](C)O` [Example 4.18] returned a half-maximal inhibitory concentration (IC50) of 19 nM. This IC50 is about 3.2-fold higher than that of the molecule before. Consider `CCCCCCN(C)C(=O)c1cc2c(cc1N1C[C@H](O)[C@@H](O)C1)n(CCO)c(CNC(=O)c1nc(Cl)c(N)nc1N)[n+]2CC` [Example 1.16], for which the IC50 was 11 nM.

`CCn1c(CNC(=O)c2nc(Cl)c(N)nc2N)[n+](CC)c2ccc(OCCNC(=O)CN3CCCC3)cc21` [Example 4.07] showed an IC50 of 1 nM.

`CCCCCOc1cc2c(cc1C(=O)N1CCNCC1)[n+](CC)c(CNC(=O)c1nc(Cl)c(N)nc1N)n2C[C@H](C)O` [Example 8.03] showed an IC50 of 8 nM. `CCCCCC(=O)N(CCOc1ccc2c(c1)n(C[C@H](C)O)c(CNC(=O)c1nc(Cl)c(N)nc1N)[n+]2CC)CP(C)(C)=O` [Example 1.06]: half-maximal inhibition (IC50) required 2 nM.

Molecule `CC[n+]1c(CNC(=O)c2nc(Cl)c(N)nc2N)n(C[C@H](C)O)c2cc(N(C)C)c(C(=O)N3CCN(C(=O)c4cncc(O)c4)CC3)cc21` [Example 4.17] had an IC50 of 23 nM. As for `CCNC(=O)CN1CCC(NC(=O)c2cc3c(cc2F)[n+](CC)c(CNC(=O)c2nc(Cl)c(N)nc2N)n3CC)CC1` [Example 3.10], the concentration for half-maximal inhibition (IC50) turned out to be 1 nM.

Take `CCn1c(CNC(=O)c2nc(Cl)c(N)nc2N)[n+](CC)c2ccc(OCCNC(=O)C3CCCN3)cc21` (stereo not shown) [Example 6.04]: the half-inhibitory concentration (IC50) was found to be 0.4 nM.

The molecule `CCn1c(CNC(=O)c2nc(Cl)c(N)nc2N)[n+](CC)c2cc(C(=O)NC3CCNCC3)c(OCC(=O)NC3CCN(C)CC3)cc21` [Example 3.22] yielded an IC50 of 10 nM. On to `CCNC(=O)c1cc2c(cc1OCC(=O)NC1CCNCC1)n(CC)c(CNC(=O)c1nc(Cl)c(N)nc1N)[n+]2CC` [Example 6.08], for which the IC50 is 1 nM. The molecule `CCn1c(CNC(=O)c2nc(Cl)c(N)nc2N)[n+](CC)c2ccc(OCCNC(=O)CN3CCC(NC(=O)OC(C)(C)C)CC3)cc21` [Example 4.10] displayed an IC50 of 1 nM. Regarding `CC[n+]1c(CNC(=O)c2nc(Cl)c(N)nc2N)n(CC2CCCCC2)c2cc(OCC[n+]3cccc(O)c3)ccc21` [Example 1.03], the concentration for half-maximal inhibition (IC50) was found to be 5 nM. As for `CCOc1cc2c(cc1C(=O)N1CCN(C(=O)OC(C)(C)C)CC1)[n+](CC)c(CNC(=O)c1nc(Cl)c(N)nc1N)n2CC` [Example 1.09], the figure is 7 nM; as for `CCn1c(CNC(=O)c2nc(Cl)c(N)nc2N)[n+](CC)c2cc(C(=O)NC3CCN(C(=O)OC(C)(C)C)CC3)c(OCC(=O)OC(C)(C)C)cc21` [Example 1.13], 9 nM. In turn, `CCNC(=O)c1cc2c(cc1OCC(=O)OC(C)(C)C)n(CC)c(CNC(=O)c1nc(Cl)c(N)nc1N)[n+]2CC` [Example 1.11] showed a half-maximal inhibitory concentration (IC50) of 10 nM. This IC50 and that of the molecule before are within 1.5-fold of each other. `CCn1c(CNC(=O)c2nc(Cl)c(N)nc2N)[n+](CCO)c2cc(OCC(=O)N3CCN(C(C)=O)CC3)ccc21` [Example 1.14] returned an IC50 of 3 nM.

Turning to `CCn1c(CNC(=O)c2nc(Cl)c(N)nc2N)[n+](CC)c2cc(C(=O)NC3CCNCC3)c(OCC(=O)O)cc21` [Example 7.02], the concentration for half-maximal inhibition (IC50) was determined as 29 nM. Then `CC[n+]1c(CNC(=O)c2nc(Cl)c(N)nc2N)n(CCO)c2cc(OCC(=O)NC3CCN(C(C)=O)CC3)ccc21` [Example 1.04], with 2 nM; and `CCn1c(CNC(=O)c2nc(Cl)c(N)nc2N)[n+](CC)c2cc(C(=O)O)c(N3CCOCC3)cc21` [Example 6.01], with 14 nM; and `CCn1c(CNC(=O)c2nc(Cl)c(N)nc2N)[n+](CC)c2ccc(OCC(=O)Nc3cncc(OCc4ccccc4)c3)cc21` [Example 3.13], with 2 nM. For the molecule `CCNC(=O)c1cc2c(cc1OCC(=O)O)n(CC)c(CNC(=O)c1nc(Cl)c(N)nc1N)[n+]2CC` [Example 7.01], half-maximal inhibition (IC50) required 38 nM. This IC50 is about 19-fold higher than that of the molecule before. Turning to `CCn1c(CNC(=O)c2nc(Cl)c(N)nc2N)[n+](CC)c2ccc(OCCNC(=O)C3CCCN3C)cc21` (stereo not shown) [Example 4.06], the IC50 stood at 0.3 nM. As for `CCn1c(CNC(=O)c2nc(Cl)c(N)nc2N)[n+](CC)c2ccc(OCC(=O)Nc3cncc([O-])c3)cc21` [Example 3.03], the half-inhibitory concentration (IC50) amounted to 0.3 nM. That is a sub-nanomolar value.

`CCNC(=O)COc1cc2c(cc1C(=O)NC1CCNCC1)[n+](CC)c(CNC(=O)c1nc(Cl)c(N)nc1N)n2CC` [Example 6.03] came in with an IC50 of 8 nM.
